Where two headings read alike, the source gives them in different places.

In general, Ki refers to the dissociation constant of the complex between target and ligand, obtained from inhibition or displacement.

One assay deals with NK1 receptor (Homo sapiens, UniProt P25103). Description: neurokinin receptor binding assay, NK1 (Ki). From the text: (§1) The in vitro and in vivo activity of the compounds of formula I can be determined by various procedures known in the art, such as a test for their ability to inhibit the activity of the NK1 agonist Substance P, an isolated hamster trachea NK2 assay, a test of the effect of NK1 antagonists on Substance P-induced airway microvascular leakage, measurement of NK2 activity in vivo in guinea pigs, measurement of bronchoconstriction due to NKA, and neurokinin receptor binding assay(s). Typical procedures are described in WO96/34857, published Nov. 7, 1996. NK3 activity is determined by following a procedure similar to that described in the literature, e.g., Molecular Pharmacol., 48 (1995), p. 711-716.
Chain of NK1 receptor (P25103 whole entry): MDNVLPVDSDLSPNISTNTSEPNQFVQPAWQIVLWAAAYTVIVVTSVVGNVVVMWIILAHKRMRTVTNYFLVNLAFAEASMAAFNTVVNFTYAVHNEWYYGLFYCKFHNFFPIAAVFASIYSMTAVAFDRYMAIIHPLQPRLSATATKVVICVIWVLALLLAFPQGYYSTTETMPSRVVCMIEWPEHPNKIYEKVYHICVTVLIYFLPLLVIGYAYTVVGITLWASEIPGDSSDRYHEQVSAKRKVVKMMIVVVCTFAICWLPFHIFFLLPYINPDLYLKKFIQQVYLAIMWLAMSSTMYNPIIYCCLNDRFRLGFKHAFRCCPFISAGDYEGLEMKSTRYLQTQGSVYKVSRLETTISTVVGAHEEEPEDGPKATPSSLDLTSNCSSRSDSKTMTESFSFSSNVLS
(§2) % Inhibition is the difference between the percent of maximum specific binding (MSB) and 100%. The percent of MSB is defined by the following equation, wherein "dpm" is disintegrations per minute: [formula]
(§3) Using the test procedures described above, the following 35 data (Ki) were obtained for exemplified compounds: […]

Another assay has as its target T1, NK2 receptor (Homo sapiens, UniProt P21452).
T1 sequence (P21452 1-398): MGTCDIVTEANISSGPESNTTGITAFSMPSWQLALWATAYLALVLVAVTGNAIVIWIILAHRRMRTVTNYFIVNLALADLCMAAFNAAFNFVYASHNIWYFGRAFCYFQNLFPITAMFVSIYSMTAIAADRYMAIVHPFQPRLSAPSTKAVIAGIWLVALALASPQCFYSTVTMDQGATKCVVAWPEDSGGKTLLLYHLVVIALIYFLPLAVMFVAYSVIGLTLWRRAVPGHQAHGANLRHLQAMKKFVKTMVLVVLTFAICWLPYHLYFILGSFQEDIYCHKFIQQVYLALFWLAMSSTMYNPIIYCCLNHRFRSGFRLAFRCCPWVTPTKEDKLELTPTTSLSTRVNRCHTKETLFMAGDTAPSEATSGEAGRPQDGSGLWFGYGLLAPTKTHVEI
Description: neurokinin receptor binding assay, NK2 (Ki).
Description: as §1, §2, §3

For `CN(CC(=NOCCCS(=O)(=O)O)C(CCN1CCC(N2CCCCC2=O)CC1)c1ccc(Cl)c(Cl)c1)C(=O)c1cc(Cl)cc(Cl)c1` (centres unmarked) [Example 17K], the Ki stood at 3.3 nM on NK1 receptor (read-out: Ki (NK1)) and 2.7 nM on NK2 receptor (read-out: Ki (NK2)).

On to `CNC(=O)CC1CCCN(C2CCN(CCC(C(CN(C)C(=O)c3cc(Cl)cc(Cl)c3)=NOCC(N)=O)c3ccc(Cl)c(Cl)c3)CC2)C1=O` (centres unmarked) [Example 15D], for which the Ki is 0.4 nM on NK1 receptor (read-out: Ki (NK1)) and 0.5 nM on NK2 receptor (read-out: Ki (NK2)).

For `CON=C(CN(C)C(=O)c1cc(Cl)cc(Cl)c1)C(CCN1CCC(N2CCCC(CC(=O)N3CCC(OC)CC3)C2=O)CC1)c1ccc(Cl)c(Cl)c1` (centres unmarked) [Example 25], the Ki at NK1 receptor (read-out: Ki (NK1)) came to 0.9 nM; at NK2 receptor (read-out: Ki (NK2)), 0.7 nM.

In the case of `Cc1cc(C)cc(C(=O)N(C)CC(=NOCC#N)C(CCN2CCC(N3CCCCC3=O)CC2)c2ccc(Cl)c(Cl)c2)c1` (centres unmarked) [Example 18D], the Ki on NK1 receptor (read-out: Ki (NK1)) and on NK2 receptor (read-out: Ki (NK2)) was 0.4 nM throughout.

For `CON=C(CN(C)C(=O)c1cc(Cl)cc(Cl)c1)[C@H](CCN1CCC(N2CCC[C@H](CC(N)=O)C2=O)CC1)c1ccc(Cl)c(Cl)c1` [Example 13C], the results for the Ki at NK1 receptor (read-out: Ki (NK1)) and at NK2 receptor (read-out: Ki (NK2)) were 0.4 nM and 0.2 nM, respectively.

Regarding `CO/N=C(\CN(C)C(=O)c1cc(C(F)(F)F)cc(C(F)(F)F)c1)C(CCN1CCC(O)(c2ccccc2)CC1)c1ccc(Cl)c(Cl)c1` (centres unmarked) [Example 11], the Ki is 3.6 nM at NK1 receptor (compound of Example 11, amide disclosed in U.S. Pat. No. 5,696,267, read-out: Ki for the NK1 receptor (unit inferred)) and 9.2 nM on NK2 receptor (compound of Example 11, amide disclosed in U.S. Pat. No. 5,696,267, read-out: Ki for the NK2 receptor (unit inferred)).

Regarding `CON=C(CN(C)C(=O)c1cc(C)cc(Cl)c1)C(CCN1CCC(N2CCCCC2=O)CC1)c1ccc(Cl)c(Cl)c1` (centres unmarked) [Example 26], the Ki on NK1 receptor (read-out: Ki (NK1)) was 1 nM; at NK2 receptor (read-out: Ki (NK2)), 1.3 nM.

Consider `CNC(=O)CC1CCCN(C2CCN(CCC(C(CN(C)C(=O)c3cc(Cl)cc(Cl)c3)=NOCC(N)=NOC)c3ccc(Cl)c(Cl)c3)CC2)C1=O` (centres unmarked) [Example 15M], for which the inhibitory constant (Ki) on NK1 receptor (read-out: Ki (NK1)) was 0.2 nM; on NK2 receptor (read-out: Ki (NK2)) it was 0.3 nM.

On to `CNC(=O)CC1CCCN(C2CCN(CCC(C(CN(C)C(=O)c3cc(Cl)cc(Cl)c3)=NOCC(=O)NCC#N)c3ccc(Cl)c(Cl)c3)CC2)C1=O` (centres unmarked) [Example 15I], for which the values for the inhibition constant Ki at NK1 receptor (read-out: Ki (NK1)) and on NK2 receptor (read-out: Ki (NK2)) were 0.8 nM and 1 nM, respectively.

Turning to `CN(C)C(=O)CC1CCCN(C2CCN(CCC(C(CN(C)C(=O)c3cc(Cl)cc(Cl)c3)=NO)c3ccc(Cl)c(Cl)c3)CC2)C1=O` (centres unmarked) [Example 14B], the Ki was 0.3 nM on NK1 receptor (read-out: Ki (NK1)) and 0.8 nM at NK2 receptor (read-out: Ki (NK2)).

As for `CNC(=O)CC1CCCN(C2CCN(CCC(C(CN(C)C(=O)c3cc(Cl)cc(Cl)c3)=NOCC(N)=NO)c3ccc(Cl)c(Cl)c3)CC2)C1=O` (centres unmarked) [Example 15F], the Ki worked out at 0.4 nM at NK1 receptor (read-out: Ki (NK1)) and 0.8 nM at NK2 receptor (read-out: Ki (NK2)).

As for `CNC(=O)CC1CCCN(C2CCN(CCC(C(CN(C)C(=O)c3cc(Cl)cc(Cl)c3)=NO)c3ccc(Cl)c(Cl)c3)CC2)C1=O` (centres unmarked) [Example 15A], the Ki at NK1 receptor (read-out: Ki (NK1)) stood at 0.2 nM; at NK2 receptor (read-out: Ki (NK2)), 0.7 nM.

On to `CNC(=O)CC1CCCN(C2CCN(CCC(C(CN(C)C(=O)c3cc(Cl)cc(Cl)c3)=NOCC(=O)Nc3nncs3)c3ccc(Cl)c(Cl)c3)CC2)C1=O` (centres unmarked) [Example 15G], for which the Ki on NK1 receptor (read-out: Ki (NK1)) is 0.9 nM; on NK2 receptor (read-out: Ki (NK2)) it was 1.3 nM.

Regarding `Cc1cc(C)cc(C(=O)N(C)CC(=NOCC(=O)N2CCSCC2)C(CCN2CCC(N3CCCCC3=O)CC2)c2ccc(Cl)c(Cl)c2)c1` (centres unmarked) [Example 18J], the Ki on NK1 receptor (read-out: Ki (NK1)) came to 0.3 nM; on NK2 receptor (read-out: Ki (NK2)) it was 3.4 nM.

As for `CONC(=O)CON=C(CN(C)C(=O)c1cc(C)cc(C)c1)C(CCN1CCC(N2CCCC(CC(=O)N(C)C)C2=O)CC1)c1ccc(Cl)c(Cl)c1` (centres unmarked) [Example 19E], the Ki is 0.6 nM on NK1 receptor (read-out: Ki (NK1)) and 1.8 nM at NK2 receptor (read-out: Ki (NK2)).

For the molecule `CCN(CC(=NOC)C(CCN1CCC(N2CCCC(CC(=O)NC)C2=O)CC1)c1ccc(Cl)c(Cl)c1)C(=O)c1cc(Cl)cc(Cl)c1` (centres unmarked) [Example 28B], the Ki was 0.8 nM at NK1 receptor (read-out: Ki (NK1)) and 1 nM at NK2 receptor (read-out: Ki (NK2)).

For `CNC(=O)CC1CCCN(C2CCN(CCC(C(CN(C)C(=O)c3cc(Cl)cc(Cl)c3)=NOCC(=O)NCS(=O)(=O)O)c3ccc(Cl)c(Cl)c3)CC2)C1=O` (centres unmarked) [Example 15J], the inhibition constant Ki at NK1 receptor (read-out: Ki (NK1)) was determined as 0.7 nM; on NK2 receptor (read-out: Ki (NK2)) it was 4.3 nM.

As for `Cc1cc(C)cc(C(=O)N(C)CC(=NOCC(=O)Nc2nncs2)C(CCN2CCC(N3CCCC(CC(=O)N(C)C)C3=O)CC2)c2ccc(Cl)c(Cl)c2)c1` (centres unmarked) [Example 19D], the figures for the Ki on NK1 receptor (read-out: Ki (NK1)) and at NK2 receptor (read-out: Ki (NK2)) were 0.9 nM and 1.4 nM, respectively.

Consider `CON=C(CN(C)C(=O)c1cc(Cl)cc(Cl)c1)[C@H](CC[N+]1([O-])CCC(N2CCCCC2=O)CC1)c1ccc(Cl)c(Cl)c1` (some centres unmarked) [Example 13G], for which the Ki turned out to be 1.5 nM at NK1 receptor (read-out: Ki (NK1)) and 0.4 nM at NK2 receptor (read-out: Ki (NK2)).

Take `CON=C(CN(C)C(=O)c1cc(Cl)cc(Cl)c1)C(CCN1CCC(N2CCCC(CC(=O)N3CCC(O)CC3)C2=O)CC1)c1ccc(Cl)c(Cl)c1` (centres unmarked) [Example 12L]: the Ki on NK1 receptor (read-out: Ki (NK1)) was determined as 0.5 nM; at NK2 receptor (read-out: Ki (NK2)), 0.9 nM.

Turning to `Cc1cc(C)cc(C(=O)N(C)CC(=NOCC(N)=NO)C(CCN2CCC(N3CCCC(CC(=O)N(C)C)C3=O)CC2)c2ccc(Cl)c(Cl)c2)c1` (centres unmarked) [Example 19C], the Ki on NK1 receptor (read-out: Ki (NK1)) and at NK2 receptor (read-out: Ki (NK2)) was 0.2 nM in each case.

`CN(CC(=NOCC(N)=NO)C(CCN1CCC(N2CCCCC2=O)CC1)c1ccc(Cl)c(Cl)c1)C(=O)c1cc(Cl)cc(Cl)c1` (centres unmarked) [Example 17E]: the Ki at NK1 receptor (read-out: Ki (NK1)) and on NK2 receptor (read-out: Ki (NK2)) was 0.7 nM in each case.

The values are drawn from patent publication US6063926A, “Substituted oximes as neurokinin antagonists” (Schering Corporation, priority 1998, dated 2000).
